Values quoted from earlier work in PMC11444200, “In Vitro Evaluation of Antipseudomonal Activity and Safety Profile of Peptidomimetic Furin Inhibitors” (Biomedicines, 2024).
Like-named read-outs stand apart in the source and are kept apart here.

Experiments:
furin = conditions: read-out: Ki (furin); cited from earlier work
[1] = design: method as in PMID 29059503; conditions: cited from earlier work
mice = conditions: mice, cited from earlier work
[2] = test system: Mas-related G protein–coupled receptor X2 (MRGPRX2); design: method as in PMID 38385828; conditions: compared to MI-1851 and MI-2415; cited from earlier work
CYP3A4 = conditions: cited from earlier work

CC(C)(C)[C@H](NC(=O)[C@H](CCCN=C(N)N)NC(=O)Cc1ccc(CN=C(N)N)cc1)C(=O)N[C@@H](CCCN=C(N)N)C(=O)NCc1ccc(C(=N)N)cc1 [MI-1148, 4-guanidinomethyl-phenylacetyl-Arg-Tle-Arg-4-Amba, reference compound]
Ki (furin): 5.5 pM
stability in human plasma [1]: high stability
mortality (mice; 5 mg/kg i.p.): all four mice died
maximum tolerated dose (mice; i.p.): 2.5 mg/kg
activation of MRGPRX2 [2]: much stronger activation

COc1ccc(-c2cccc(S(=O)(=O)N[C@@H](Cc3cccc(C(=N)N)c3)C(=O)N3CCN(C(=O)NC4CCCCC4)CC3)c2)c(OC)c1 [MI-1900]
CYP3A4 inhibition (CYP3A4): inhibit CYP3A4 already at considerably lower concentrations

N=C(N)c1cccc(C[C@H](NS(=O)(=O)c2cccc(-c3ccc(Cl)cc3Cl)c2)C(=O)N2CCC(CCN)CC2)c1.O=C(O)C(F)(F)F.O=C(O)C(F)(F)F [MI-432]
CYP3A4 inhibition (CYP3A4; compared with MI-1851 and MI-2415): inhibit CYP3A4 already at considerably lower concentrations
